Test results from patent publication US4721808A, “Process for purification of crude p-hydroxymethylbenzoic acid” (Amoco Corporation, priority 1987, dated 1988).

Experiment: Solubilities of pHMBA and Impurities in Water
Format: physicochemical
Experimental: Since solubilities of p-hydroxymethylbenzoic acid and impurities in solvents depend upon the temperature at which the reaction takes place, increased product production is obtained by increased temperature and pressure.
Solubilities of pHMBA and Impurities in Water
Solubility (g/100 ml H2 O)

| Solubility at 20° C. | Solubility at 100° C. | SMILES |
| --- | --- | --- |
| < 0.005 g/100 ml H2 O | ~ 0.25 g/100 ml H2 O | O=Cc1ccc(C(=O)O)cc1 [4-CBA, 4-carboxybenzaldehyde] |
| 0.02 g/100 ml H2 O | 0.22 g/100 ml H2 O | Cc1ccc(C(=O)O)cc1 [p-Toluic Acid, p-toluic acid] |
| ~ 0.5 g/100 ml H2 O | ~ 10.0 g/100 ml H2 O | O=C(O)c1ccc(CO)cc1 [pHMBA, p-hydroxymethylbenzoic acid] |

| SMILES | Solubility at 20° C. | Solubility at 100° C. |
| --- | --- | --- |
| O=C(O)c1ccc(C(=O)O)cc1 [Terephthalic Acid, terephthalic acid] | < 0.005 g/100 ml H2 O | 0.03 g/100 ml H2 O |
